pIC50: −log10 of the molar value. Starred links: 1 amine or outer side, 2 acyl side, 3 side chain; linkers in the order of their positions; H or OH if unused. Positions of bridges follow the written chain, without caps; N, C: chain ends. Non-standard residues stand in square brackets, D forms with d. Residues, ends and D or L forms follow the SMILES beside them. Groups on a side chain read outwards from the residue. ξ: configuration not given here. *: point of attachment. X46 = CCCCCCCCCCCC(=O)N[C@@H](CCC(=O)NCCOCCOCC(=O)NCCOCCOCC(=O)NCCCC[C@H](NC(=O)COCCOCCNC(=O)COCCOCCNC(=O)CC[C@H](NC(=O)CCCCCCCCCCC)C(=O)O)C(=O)*)C(=O)O; Trp(7-(3-AcNH-Ph)) = CC(=O)Nc1cccc(-c2cccc3c(C[C@H](N)C(=O)O)c[nH]c23)c1; X16 = C[N+](C)(C)Cc1cn(-c2ccc(C[C@H](N[*:1])C(=O)[*:2])cc2)nn1; Me3N+(CH2)2O(CH2)2O(CH2)2CO = C[N+](C)(C)CCOCCOCCC(=O)*; CH2CH2OCH2CH2OCH2CH2NMe3+ = C[N+](C)(C)CCOCCOCC*; Trp(7-Me) = Cc1cccc2c(C[C@H](N)C(=O)O)c[nH]c12; Abu(4-yl) = O=C([C@H](CC[*:3])N[*:1])[*:2]; 2Nal = N[C@@H](Cc1ccc2ccccc2c1)C(=O)O; AEF = NCCOc1ccc(C[C@H](N)C(=O)O)cc1; dNMeY = CN[C@H](Cc1ccc(O)cc1)C(=O)O; 3Pal = N[C@@H](Cc1cccnc1)C(=O)O; Cit = NC(=O)NCCC[C@H](N)C(=O)O; Lys(Me) = CNCCCC[C@H](N)C(=O)O; αMeL = CC(C)C[C@](C)(N)C(=O)O; NMeK = CN[C@@H](CCCCN)C(=O)O; Pen = CC(C)(S)[C@H](N)C(=O)O; ξLys(Me) = CNCCCCC(N)C(=O)O; Thp = NC1(C(=O)O)CCOCC1; X3 = C[N+](C)(C)CCCCC*; AEEA = NCCOCCOCC(=O)O; Sar = CNCC(=O)O
Experiments:
[1] = target: T1, IL-23R (Homo sapiens, UniProt Q5VWK5); experiment: IL23R Reporter Assay; type: cell-based; details: HEK293 cells containing IL-23R, IL-12RP1 and STAT-inducible firefly luciferase reporter; 10 ng/mL IL-23 (EC90); 5 h at 37° C.; read-out: IL23R Reporter Assay
T1 construct: host or cells: HEK293
T1 sequence (Q5VWK5 24-629): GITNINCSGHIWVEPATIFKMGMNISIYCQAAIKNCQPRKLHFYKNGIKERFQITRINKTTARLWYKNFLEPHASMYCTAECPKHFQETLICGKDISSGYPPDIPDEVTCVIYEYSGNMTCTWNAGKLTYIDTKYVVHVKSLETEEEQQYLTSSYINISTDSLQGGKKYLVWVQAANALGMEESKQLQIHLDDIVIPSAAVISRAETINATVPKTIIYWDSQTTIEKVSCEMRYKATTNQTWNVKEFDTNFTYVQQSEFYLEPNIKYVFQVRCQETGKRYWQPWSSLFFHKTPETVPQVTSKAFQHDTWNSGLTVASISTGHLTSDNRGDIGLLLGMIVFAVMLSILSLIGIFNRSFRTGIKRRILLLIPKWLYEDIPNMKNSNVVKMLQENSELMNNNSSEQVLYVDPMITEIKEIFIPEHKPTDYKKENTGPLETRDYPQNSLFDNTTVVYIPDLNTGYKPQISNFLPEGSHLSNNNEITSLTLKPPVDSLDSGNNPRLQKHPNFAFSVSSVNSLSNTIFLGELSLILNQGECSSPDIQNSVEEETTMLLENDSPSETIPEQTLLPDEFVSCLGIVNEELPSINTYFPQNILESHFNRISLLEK

[2] = Exposed Polar Surface Area (EPSA); type: physicochemical; details: SFC on Chirex 3014 column; sample 1 mM DMSO stock; read-out: EPSA
Method in brief: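 SFC retention on a Chirex 3014 (S)-valine/(R)-1-(α-naphthyl)ethylamine column, 35 °C, CO2 with MeOH (20 mM ammonium formate) gradient 5–60% at 20%/min, 14 MPa outlet. Retention times converted to EPSA (Å^2) via linear calibration with 8 standards; samples from 1 mM DMSO stock, run in duplicate.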

Row | Structure (SMILES) | pIC50 [1] | EPSA [2] [A^2]
1 | CC(=O)N(C)CCCCC(NC(=O)C1(NC(=O)[C@H](Cc2ccc3ccccc3c2)NC(=O)[C@H](Cc2ccc(OCCOCCOCC[N+](C)(C)C)cc2)NC(=O)[C@@H]2CSCC[C@H](NC(=O)CCOCCOCC[N+](C)(C)C)C(=O)N[C@@H](CC(=O)N(C)C)C(=O)N[C@@H]([C@@H](C)O)C(=O)N[C@@H](Cc3c[nH]c4c(C)cccc34)C(=O)N[C@@H](CCCCN(C)C(C)=O)C(=O)N2)CCOCC1)C(=O)N[C@@H](CC(N)=O)C(=O)N[C@@H](C)C(=O)N(C)CC(=O)N(C)C (stereo partly drawn) [compound 476, cPEG3aCO-Abu(1)-N(N(Me)2)-T-7MeW-K(NMeAc)-C(1)-APEG3F-2Nal-THP-K(NMeAc)-N-A-Sar-CON(Me)2] ({Me3N+(CH2)2O(CH2)2O(CH2)2CO}-[Abu(4-yl)]D(NMe2)T[Trp(7-Me)][Lys(Me)](Ac)CY(CH2CH2OCH2CH2OCH2CH2NMe3+)[2Nal][Thp][ξLys(Me)](Ac)NA[Sar]-NMe2; thioether 1-6) | < 5.59 | 155
2 | CC(=O)N(C)CCCC[C@H](NC(=O)C1(NC(=O)[C@H](Cc2ccc3ccccc3c2)NC(=O)[C@H](Cc2ccc(OCCCCC[N+](C)(C)C)cc2)NC(=O)[C@H]2NC(=O)[C@H](CC(C)C)NC(=O)[C@H](Cc3c[nH]c4c(C)cccc34)NC(=O)[C@H]([C@@H](C)O)NC(=O)[C@H](CC(=O)N(C)C)NC(=O)[C@@H](NC(=O)CCOCCOCC[N+](C)(C)C)C(C)(C)SSC2(C)C)CCOCC1)C(=O)N[C@@H](CC(N)=O)C(=O)N[C@@H](Cc1cccnc1)C(=O)N(C)CC(=O)N(C)C [compound 489, cPEG3aCO-Pen(3)-N(N(Me)2)-T-7MeW-L-Pen(3)-TMAPF-2Nal-THP-K(NMeAc)-N-3Pya-Sar-CON(Me)2] ({Me3N+(CH2)2O(CH2)2O(CH2)2CO}-[Pen]D(NMe2)T[Trp(7-Me)]L[Pen]Y(X3)[2Nal][Thp][Lys(Me)](Ac)N[3Pal][Sar]-NMe2; disulfide 1-6) | 8.43 | 164
3 | CC(=O)NCCCC[C@@H]1NC(=O)[C@H](Cc2c[nH]c3c(-c4cccc(NC(C)=O)c4)cccc23)NC(=O)[C@H]([C@@H](C)O)NC(=O)[C@H](CC(N)=O)NC(=O)[C@@H](NC(C)=O)C(C)(C)SSC(C)(C)[C@@H](C(=O)N[C@@H](Cc2ccc(OCCCCC[N+](C)(C)C)cc2)C(=O)N[C@@H](Cc2ccc3ccccc3c2)C(=O)NC2(C(=O)N[C@@H](CCC(=O)O)C(=O)N[C@@H](CC(N)=O)C(=O)N[C@@H](Cc3cccnc3)C(=O)N(C)CC(N)=O)CCOCC2)NC1=O [compound 451, MeCO-Pen(3)-N-T-7(3NAcPh)W-K(Ac)-Pen(3)-TMAPF-2Nal-THP-E-N-3Pya-Sar-CONH2] (Ac-[Pen]NT[Trp(7-(3-AcNH-Ph))]K(Ac)[Pen]Y(X3)[2Nal][Thp]EN[3Pal][Sar]-NH2; disulfide 1-6) | 8.82 | 172
4 | CC(=O)N(C)CCCC[C@@H]1NC(=O)[C@H](Cc2c[nH]c3c(C)cccc23)NC(=O)[C@H]([C@@H](C)O)NC(=O)[C@H](CC(=O)N(C)C)NC(=O)[C@@H](NC(=O)CCOCCOCC[N+](C)(C)C)C(C)(C)SSC(C)(C)[C@@H](C(=O)N[C@@H](Cc2ccc(OCCCCC[N+](C)(C)C)cc2)C(=O)N[C@@H](C)C(=O)NC2(C(=O)N[C@@H](CCCCN(C)C(C)=O)C(=O)N[C@@H](CC(N)=O)C(=O)N[C@@H](Cc3cccnc3)C(=O)N(C)CC(=O)N(C)C)CCOCC2)NC1=O [compound 500, cPEG3aCO-Pen(3)-N(N(Me)2)-T-7MeW-K(NMeAc)-Pen(3)-TMApF-A-THP-K(NMeAc)-N-3Pya-Sar-CON(Me)2] ({Me3N+(CH2)2O(CH2)2O(CH2)2CO}-[Pen]D(NMe2)T[Trp(7-Me)][Lys(Me)](Ac)[Pen]Y(X3)A[Thp][Lys(Me)](Ac)N[3Pal][Sar]-NMe2; disulfide 1-6) | < 5.92 | 159
5 | CC(=O)NCCCC[C@@H]1NC(=O)[C@H](Cc2c[nH]c3c(C)cccc23)NC(=O)[C@H]([C@@H](C)O)NC(=O)[C@H](CC(N)=O)NC(=O)[C@@H](NC(C)=O)C(C)(C)SSC(C)(C)[C@@H](C(=O)N[C@@H](Cc2ccc(-n3cc(C[N+](C)(C)C)nn3)cc2)C(=O)N[C@@H](Cc2ccc3ccccc3c2)C(=O)NC2(C(=O)N[C@@H](CCCCNC(C)=O)C(=O)N[C@@H](CC(N)=O)C(=O)N[C@@H](Cc3cccnc3)C(=O)N(C)CC(N)=O)CCOCC2)NC1=O [compound 426] (Ac-[Pen]NT[Trp(7-Me)]K(Ac)[Pen][X16][2Nal][Thp]K(Ac)N[3Pal][Sar]-NH2; disulfide 1-6 (inferred)) | 8.80 | 163
6 | CC(=O)N[C@H](CCCNC(=N)N)C(=O)N[C@@H]1C(=O)N[C@@H](CC(N)=O)C(=O)N[C@@H]([C@@H](C)O)C(=O)N[C@@H](Cc2c[nH]c3c(C)cccc23)C(=O)N[C@@H](CCCNC(N)=O)C(=O)N[C@H](C(=O)N[C@@H](Cc2ccc(OCCN)cc2)C(=O)N[C@@H](Cc2ccc3ccccc3c2)C(=O)N[C@@](C)(CC(C)C)C(=O)N[C@@H](CCC(=O)O)C(=O)N[C@@H](CC(N)=O)C(=O)N[C@H](Cc2c[nH]cn2)C(=O)N(C)[C@H](Cc2ccc(O)cc2)C(N)=O)C(C)(C)SSC1(C)C [compound 17, MeCO-r-Pen(3)-N-T-7MeW-Cit-Pen(3)-AEF-2Nal-aMeL-E-N-h-NMeDTyr-CONH2] (Ac-[dR][Pen]NT[Trp(7-Me)][Cit][Pen][AEF][2Nal][αMeL]EN[dH][dNMeY]-NH2; disulfide 2-7) | 7.42 | 186
7 | CCCCCCCCCCCC(=O)N[C@@H](CCC(=O)NCCOCCOCC(=O)NCCOCCOCC(=O)NCCCC[C@H](NC(=O)COCCOCCNC(=O)COCCOCCNC(=O)CC[C@H](NC(=O)CCCCCCCCCCC)C(=O)O)C(=O)NCCOCCOCC(=O)NCCOCCOCC(=O)NCCCC[C@@H](C(N)=O)N(C)C(=O)[C@H](Cc1cccnc1)NC(=O)[C@H](CC(N)=O)NC(=O)[C@H](CCCCN(C)C(C)=O)NC(=O)C1(NC(=O)[C@H](Cc2ccc3ccccc3c2)NC(=O)[C@H](Cc2ccc(OCCCCC[N+](C)(C)C)cc2)NC(=O)[C@H]2NC(=O)[C@H](CCCCNC(C)=O)NC(=O)[C@H](Cc3c[nH]c4c(C)cccc34)NC(=O)[C@H]([C@@H](C)O)NC(=O)[C@H](CC(=O)N(C)C)NC(=O)[C@@H](NC(=O)CCOCCOCC[N+](C)(C)C)C(C)(C)SSC2(C)C)CCOCC1)C(=O)O [compound 372, cPEG3aCO-Pen(3)-N(N(Me)2)-T-7MeW-K(Ac)-Pen(3)-TMAPF-2Nal-THP-K(NMeac)-N-3Pya-NMeK(PEG2PEG2K(PEG2PEG2gEC12)2)-CONH2] ({Me3N+(CH2)2O(CH2)2O(CH2)2CO}-[Pen]D(NMe2)T[Trp(7-Me)]K(Ac)[Pen]Y(X3)[2Nal][Thp][Lys(Me)](Ac)N[3Pal][NMeK]([AEEA-AEEA-X46])-NH2; disulfide 1-6) | 7.70 | 203
8 | CC(=O)N(C)CCCC[C@H](NC(=O)C1(NC(=O)[C@H](Cc2ccc3ccccc3c2)NC(=O)[C@H](Cc2ccc(OCCOCCOCC[N+](C)(C)C)cc2)NC(=O)[C@H]2NC(=O)[C@H](CCCCNC(=O)CCOCCOCC[N+](C)(C)C)NC(=O)[C@H](Cc3c[nH]c4c(C)cccc34)NC(=O)[C@H]([C@@H](C)O)NC(=O)[C@H](CC(=O)N(C)C)NC(=O)[C@@H](NC(=O)CCOCCOCC[N+](C)(C)C)C(C)(C)SSC2(C)C)CCOCC1)C(=O)N[C@@H](CC(N)=O)C(=O)N[C@@H](Cc1cccnc1)C(=O)N(C)CC(=O)N(C)C [compound 544, cPEG3aCO-Pen(3)-N(N(Me)2)-T-7MeW-K(cPEG3aCO)-Pen(3)-APEG3F-2Nal-THP-K(NMeAc)-N-3Pya-Sar-CON(Me)2] ({Me3N+(CH2)2O(CH2)2O(CH2)2CO}-[Pen]D(NMe2)T[Trp(7-Me)]K(Me3N+(CH2)2O(CH2)2O(CH2)2CO)[Pen]Y(CH2CH2OCH2CH2OCH2CH2NMe3+)[2Nal][Thp][Lys(Me)](Ac)N[3Pal][Sar]-NMe2; disulfide 1-6) | 8.70 | 157
9 | CC(=O)NCCCC[C@@H]1NC(=O)[C@H](Cc2c[nH]c3c(-c4cccc(NC(C)=O)c4)cccc23)NC(=O)[C@H]([C@@H](C)O)NC(=O)[C@H](CC(N)=O)NC(=O)[C@@H](NC(C)=O)C(C)(C)SSC(C)(C)[C@@H](C(=O)N[C@@H](Cc2ccc(OCCCCC[N+](C)(C)C)cc2)C(=O)N[C@@H](Cc2ccc3ccccc3c2)C(=O)NC2(C(=O)N[C@@H](CCCCN(C)C(C)=O)C(=O)N[C@@H](CC(N)=O)C(=O)N[C@@H](Cc3cncc(C)c3)C(=O)N(C)CC(N)=O)CCOCC2)NC1=O [compound 502, MeCO-Pen(3)-N-T-7(3NAcPh)W-K(Ac)-Pen(3)-TMAPF-2Nal-THP-K(NMeAc)-N-5MePyridinAla-Sar-CONH2] | 8.42 | 169

From patent US20260022143A1, “Cyclic Peptide Inhibitors of IL-23” (JANSSEN PHARMACEUTICA NV, priority 2022, published 2026)
